Like-named read-outs stand apart in the source and are kept apart here.
What was measured:
[1] = Chiral stability under long-term and accelerated storage conditions; type: physicochemical; settings: for colour and chirality after storage: −20° C., 5° C., 25° C./60% RH 3 months, 40° C./75% RH 1 month
Experimental: Isomer stability under long-term and accelerated conditions was studied.
Compound A and isomers A-P1 and A-P2 were investigated for traits and isomeric stability at −20±5° C., 5° C.±3° C., 25° C.±2° C. (60%±5% RH) and 40° C.±2° C.

[2] = test system: HuPrime model GA6201 human gastric cancer; settings: for Tumor volume: 60 mg/kg i.p.
Experimental: The test was divided into groups of the test drug Isocyclophosphamide 60 mg/kg group, the test drug AST-3424 5 mg/kg group, the test drug A compound 2.5 mg/kg and 5 mg/kg groups, and normal saline (pH 7.0-7.6) vehicle control group, a total of 5 groups, with 5 mice per group.
In the above dosing regimen, Isocyclophosphamide was designed based on the best dosing regimen with maximum safe dosage as recited in the document (Jessica D. Sun, Qian Liu, Dharmendra Ahluwalia, Damien J. Ferraro, Yan Wang, Don Jung, Mark D. Matteucci, and Charles P. Hart. Comparison of hypoxia-activated prodrug evofosfamide (TH-302) and ifosfamide in preclinical non-small cell lung cancer models [J]. Cancer Biology & Therapy, 2016, 17(4): 371-380).

[3] = in vitro
Experimental: (1) Compound A for test, progesterone positive control, and 100 mM stock solutions of AST-3021 inhibitor were prepared and stored in the freezer (−10° C. to −30° C.).
1) Negative control group: at different time points (0 and 60 min), 30 μL/well of hepatocyte cytosol suspension containing 7.5 μM of sample for test was distributed in a 96-well plate. Three replicate wells were prepared in parallel.
2) Positive control group: at different time points (0, 5, 15, 30, 45 and 60 min), 30 μL/well of hepatocyte cytosol suspension containing 7.5 μM of the positive control was distributed in a 96-well plate. Three replicate wells were prepared in parallel.
3) Normal reaction group: at different time points (0, 5, 15, 30, 45 and 60 min), 30 μL/well of hepatocyte cytosol suspension containing 7.5 μM of sample for test was distributed in a 96-well plate. Three replicate wells were prepared in parallel.
4) Inhibition reaction group: at different time points (0, 5, 15, 30, 45 and 60 min), 30 μL/well of hepatocyte cytosol suspension containing […] of sample for test and 4.5 μM of the inhibitor was distributed in a 96-well plate. Three replicate wells were prepared in parallel.
6) 0 min samples: after 150 μL/well of acetonitrile containing the internal standard was added, then 15 μL/well of pre-heated NADPH working solution was added to the samples of normal reaction group, inhibition reaction group and positive control group, and 15 μL/well of pre-heated potassium phosphate buffer was added to the samples of negative control group.
7) Other samples (5, 15, 30, 45 and 60 min): for normal reaction group, inhibition reaction group and positive control group, 15 μL/well of pre-heated NADPH working solution was added to start the reaction; for negative control group, 15 μL/well of pre-heated potassium phosphate buffer was added. The reaction plates were then continued to incubate in a 37° C. water bath and the reactions were stopped by the addition of 150 μL/well of stop solution at the corresponding time points (5, 15, 30, 45 and 60 min).
The concentration of analyte in each sample was expressed as a peak area ratio (peak area analyte/peak areainternal standard), then the peak area ratio at 0 min was used as a reference to calculate the % Remaining at each time point of the incubation, and the ln logarithmic value of the % Remaining was linearly fitted to the incubation time and the half-life was calculated according to the following formula.
In the absence of AST-3021, 5 μM of progesterone was co-incubated with 2 mM of NADPH and 1 mg/mL of hepatocyte cytosol for 0-60 min as a positive control.

[4] = 25° C. ± 2° C./60% ± 5% RH, 1 month
[5] = 25° C. ± 2° C./60% ± 5% RH, 3 months
[6] = 40° C. ± 2° C./75% ± 5% RH, 1 month
[7] = 60 mg/kg i.p. 5 days on, 2 days off, 2 weeks, Day 38

SMILES: O=[N+]([O-])c1ccc(C(OP(=O)(N2CC2)N2CC2)C(F)(F)F)cc1Oc1ccc(-c2ccc(F)cc2)c(F)c1 (single isomer, unassigned) [A-P1]
- Isomer peak A-P1 ([1]; 0 month): 99.92%
- Isomer peak A-P2 ([1]; 0 month): 0.08%
- Isomer peak A-P1 ([1]; 5° C. ± 3° C., 1 month): 99.92%
- Isomer peak A-P2 ([1]; 5° C. ± 3° C., 1 month): 0.08%
- Isomer transformation ([1]; 5° C. ± 3° C., 1 month): 0.00%
- Isomer peak A-P1 ([1]; 5° C. ± 3° C., 3 months): 99.92%
- Isomer peak A-P2 ([1]; 5° C. ± 3° C., 3 months): 0.08%
- Isomer transformation ([1]; 5° C. ± 3° C., 3 months): 0.00%
- Isomer peak A-P1 [1, 4]: 99.92%
- Isomer peak A-P2 [1, 4]: 0.08%
- Isomer transformation [1, 4]: 0.00%
- Isomer peak A-P1 [1, 5]: 99.92%
- Isomer peak A-P2 [1, 5]: 0.08%
- Isomer transformation [1, 5]: 0.00%
- Isomer peak A-P1 [1, 6]: 99.91%
- Isomer peak A-P2 [1, 6]: 0.09%
- Isomer transformation [1, 6]: 0.01%
- colour and chirality after storage [1]: essentially no change
- Isomer peak A-P1 ([1]; −20 ± 5° C., 3 months): 99.92%
- Isomer peak A-P2 ([1]; −20 ± 5° C., 3 months): 0.08%
- Isomer transformation ([1]; −20 ± 5° C., 3 months): 0.00%

SMILES: O=[N+]([O-])c1ccc(C(OP(=O)(N2CC2)N2CC2)C(F)(F)F)cc1Oc1ccc(-c2ccc(F)cc2)c(F)c1 (single isomer, unassigned) [A-P2]
- Isomer peak A-P1 ([1]; 0 month): 0.25%
- Isomer peak A-P2 ([1]; 0 month): 99.75%
- Isomer peak A-P1 ([1]; 5° C. ± 3° C., 1 month): 0.25%
- Isomer peak A-P2 ([1]; 5° C. ± 3° C., 1 month): 99.75%
- Isomer transformation ([1]; 5° C. ± 3° C., 1 month): 0.00%
- Isomer peak A-P1 ([1]; 5° C. ± 3° C., 3 months): 0.25%
- Isomer peak A-P2 ([1]; 5° C. ± 3° C., 3 months): 99.75%
- Isomer transformation ([1]; 5° C. ± 3° C., 3 months): 0.00%
- Isomer peak A-P1 [1, 4]: 0.25%
- Isomer peak A-P2 [1, 4]: 99.75%
- Isomer transformation [1, 4]: 0.00%
- Isomer peak A-P1 [1, 5]: 0.25%
- Isomer peak A-P2 [1, 5]: 99.75%
- Isomer transformation [1, 5]: 0.00%
- Isomer peak A-P1 [1, 6]: 0.26%
- Isomer peak A-P2 [1, 6]: 99.74%
- Isomer transformation [1, 6]: 0.01%
- colour and chirality after storage [1]: essentially no change
- Isomer peak A-P1 ([1]; −20 ± 5° C., 3 months): 0.26%
- Isomer peak A-P2 ([1]; −20 ± 5° C., 3 months): 99.74%
- Isomer transformation ([1]; −20 ± 5° C., 3 months): −0.01%

SMILES: O=P1(NCCCl)OCCCN1CCCl (centres unmarked) [Isocyclophosphamide, reference compound]
- Relative tumor volume (x ± S) [2, 7]: 3.85 ± 0.63
- T/C (%) [2, 7]: 41.17%
- TGI (%) [2, 7]: 58.83%
- Tumor volume (x ± S) [2, 7]: 371.02 ± 75.96
- Tumor volume ([2]; 0 day): 94.15 mm^3
- Tumor volume ([2]; 3 days): 122.22 mm^3
- Tumor volume ([2]; 7 days): 129.39 mm^3
- Tumor volume ([2]; 10 days): 175.00 mm^3
- Tumor volume ([2]; 14 days): 190.74 mm^3
- Tumor volume ([2]; 17 days): 189.23 mm^3
- Tumor volume ([2]; 21 days): 217.96 mm^3
- Tumor volume ([2]; 24 days): 225.66 mm^3
- Tumor volume ([2]; 28 days): 247.04 mm^3
- Tumor volume ([2]; 31 days): 265.76 mm^3
- Tumor volume ([2]; 35 days): 324.51 mm^3
- Tumor volume ([2]; 38 days): 371.02 mm^3
- Tumor volume ([2]; 42 days): 403.47 mm^3
- Tumor volume ([2]; 45 days): 484.83 mm^3
- Tumor volume ([2]; 49 days): 578.60 mm^3

SMILES: CC(=O)[C@H]1CC[C@H]2[C@@H]3CCC4=CC(=O)CC[C@]4(C)[C@H]3CC[C@]12C [Progesterone]
- half-life at 5 µM ([3]; CD-1, mouse, hepatocyte cytosol, Metabolic parameter t1/2, mouse, 2 mM NADPH, no AST-3021 (normal reaction / positive control group), 5 μM): 37.7 min
- half-life at 5 µM ([3]; SD, rat, hepatocyte cytosol, Metabolic parameter t1/2, rat, 2 mM NADPH, no AST-3021 (normal reaction / positive control group), 5 μM): 22.3 min
- half-life at 5 µM ([3]; cynomolgus (printed as 'machins'), monkey, cytosol): 13.2 min
- Metabolic parameter k ([3]; human, 2 mM NADPH, no AST-3021 (normal reaction / positive control group), 5 μM): 0.0543
- average % Remaining ([3]; human, 2 mM NADPH, no AST-3021 (normal reaction / positive control group), 5 μM, 0 min): 100.00%
- average % Remaining ([3]; human, 2 mM NADPH, no AST-3021 (normal reaction / positive control group), 5 μM, 5 min): 80.76%
- average % Remaining ([3]; human, 2 mM NADPH, no AST-3021 (normal reaction / positive control group), 5 μM, 15 min): 55.69%
- average % Remaining ([3]; human, 2 mM NADPH, no AST-3021 (normal reaction / positive control group), 5 μM, 30 min): 20.59%
- average % Remaining ([3]; human, 2 mM NADPH, no AST-3021 (normal reaction / positive control group), 5 μM, 45 min): 7.72%
- average % Remaining ([3]; human, 2 mM NADPH, no AST-3021 (normal reaction / positive control group), 5 μM, 60 min): 0.46%
- Metabolic parameter k ([3]; monkey, 2 mM NADPH, no AST-3021 (normal reaction / positive control group), 5 μM): 0.0525
- average % Remaining ([3]; monkey, 2 mM NADPH, no AST-3021 (normal reaction / positive control group), 5 μM, 0 min): 100.00%
- average % Remaining ([3]; monkey, 2 mM NADPH, no AST-3021 (normal reaction / positive control group), 5 μM, 5 min): 82.47%
- average % Remaining ([3]; monkey, 2 mM NADPH, no AST-3021 (normal reaction / positive control group), 5 μM, 15 min): 59.82%
- average % Remaining ([3]; monkey, 2 mM NADPH, no AST-3021 (normal reaction / positive control group), 5 μM, 30 min): 28.19%
- average % Remaining ([3]; monkey, 2 mM NADPH, no AST-3021 (normal reaction / positive control group), 5 μM, 45 min): 10.01%
- average % Remaining ([3]; monkey, 2 mM NADPH, no AST-3021 (normal reaction / positive control group), 5 μM, 60 min): 3.26%
- Metabolic parameter k ([3]; mouse, 2 mM NADPH, no AST-3021 (normal reaction / positive control group), 5 μM): 0.0184
- average % Remaining ([3]; mouse, 2 mM NADPH, no AST-3021 (normal reaction / positive control group), 5 μM, 0 min): 100.00%
- average % Remaining ([3]; mouse, 2 mM NADPH, no AST-3021 (normal reaction / positive control group), 5 μM, 5 min): 89.61%
- average % Remaining ([3]; mouse, 2 mM NADPH, no AST-3021 (normal reaction / positive control group), 5 μM, 15 min): 78.52%
- average % Remaining ([3]; mouse, 2 mM NADPH, no AST-3021 (normal reaction / positive control group), 5 μM, 30 min): 62.61%
- average % Remaining ([3]; mouse, 2 mM NADPH, no AST-3021 (normal reaction / positive control group), 5 μM, 45 min): 44.84%
- average % Remaining ([3]; mouse, 2 mM NADPH, no AST-3021 (normal reaction / positive control group), 5 μM, 60 min): 31.03%
- Metabolic parameter k ([3]; rat, 2 mM NADPH, no AST-3021 (normal reaction / positive control group), 5 μM): 0.0311
- average % Remaining ([3]; rat, 2 mM NADPH, no AST-3021 (normal reaction / positive control group), 5 μM, 0 min): 100.00%
- average % Remaining ([3]; rat, 2 mM NADPH, no AST-3021 (normal reaction / positive control group), 5 μM, 5 min): 84.80%
- average % Remaining ([3]; rat, 2 mM NADPH, no AST-3021 (normal reaction / positive control group), 5 μM, 15 min): 69.77%
- average % Remaining ([3]; rat, 2 mM NADPH, no AST-3021 (normal reaction / positive control group), 5 μM, 30 min): 45.51%
- average % Remaining ([3]; rat, 2 mM NADPH, no AST-3021 (normal reaction / positive control group), 5 μM, 45 min): 21.61%
- average % Remaining ([3]; rat, 2 mM NADPH, no AST-3021 (normal reaction / positive control group), 5 μM, 60 min): 4.70%
